SMILES strings stand for the structures. Values joined by “and” are separate entries in the source; they are usually repeats but may differ in a detail not shown here. Equal entries are not always repeated. Where two headings read alike, the source gives them in different places.

In data set [1] the target is T1, MAPKAPK2 (Homo sapiens, UniProt P49137).
T1 construct: purchased Ambit (DiscoverX) KINOMEscan; Cerep
Nature of the data set: KINOMEscan. In kind it is binding. The conditions noted are these: read-out: Remaining enzyme activity. A digest of the protocol:
(§1)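 Kinase preparations were T7 phage fusions produced in E. coli (32 °C until lysis, lysates clarified) or HEK-293-expressed proteins with DNA tags. These were mixed with immobilized active-site ligand and SC81458 at 10 μM. The amount of kinase in eluates was determined by qPCR.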

Data set [2] addresses T2, PRKCD (Homo sapiens, UniProt Q05655).
T2 construct: purchased Ambit (DiscoverX) KINOMEscan; Cerep
Kind of data set: KINOMEscan. In kind it is binding. The conditions noted are these: read-out: Remaining enzyme activity. A digest of the protocol: as §1

In data set [3] the target is T3, p38-alpha (Homo sapiens, UniProt Q16539).
T3 construct: purchased Ambit (DiscoverX) KINOMEscan; Cerep
Kind of data set: KINOMEscan. Type of data set: binding. The conditions noted are these: read-out: Remaining enzyme activity. A digest of the protocol:
as §1

Data set [4] has as its target T4, PKMYT1 (Homo sapiens, UniProt Q99640).
T4 construct: purchased Ambit (DiscoverX) KINOMEscan; Cerep
Kind of data set: KINOMEscan. In kind it is binding. The conditions noted are these: read-out: Remaining enzyme activity. The method, boiled down:
as §1

Data set [5] deals with T5, PLK3 (Homo sapiens, UniProt Q9H4B4).
T5 construct: purchased Ambit (DiscoverX) KINOMEscan; Cerep
Nature of the data set: KINOMEscan. In kind it is binding. The conditions noted are these: read-out: Remaining enzyme activity. The method, boiled down:
as §1

Data set [6] deals with T6, PAK4 (Homo sapiens, UniProt O96013).
T6 construct: purchased Ambit (DiscoverX) KINOMEscan; Cerep
T6 sequence (O96013 whole entry): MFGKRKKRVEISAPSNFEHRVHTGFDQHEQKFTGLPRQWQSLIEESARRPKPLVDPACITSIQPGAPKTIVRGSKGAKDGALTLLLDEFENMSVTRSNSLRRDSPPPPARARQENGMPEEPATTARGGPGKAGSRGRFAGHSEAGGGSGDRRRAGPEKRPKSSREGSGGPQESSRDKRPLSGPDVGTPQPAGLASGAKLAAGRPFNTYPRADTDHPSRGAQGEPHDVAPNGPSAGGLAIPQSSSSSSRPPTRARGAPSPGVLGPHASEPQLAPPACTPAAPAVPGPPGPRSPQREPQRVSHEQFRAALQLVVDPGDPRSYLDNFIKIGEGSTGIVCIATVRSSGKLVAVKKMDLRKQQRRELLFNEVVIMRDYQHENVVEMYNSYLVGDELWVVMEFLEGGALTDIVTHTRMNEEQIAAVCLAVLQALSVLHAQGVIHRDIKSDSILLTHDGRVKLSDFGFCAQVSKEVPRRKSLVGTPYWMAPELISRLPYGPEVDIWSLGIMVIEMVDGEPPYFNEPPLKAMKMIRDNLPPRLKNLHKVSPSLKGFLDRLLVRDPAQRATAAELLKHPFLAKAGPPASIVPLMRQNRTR
Nature of the data set: KINOMEscan. Type of data set: binding. The conditions noted are these: read-out: Remaining enzyme activity. The method, boiled down: as §1

In data set [7] the target is T7, STK16 (Homo sapiens, UniProt O75716).
T7 construct: purchased Ambit (DiscoverX) KINOMEscan; Cerep
Nature of the data set: KINOMEscan. The conditions noted are these: read-out: Remaining enzyme activity. In kind it is binding. A digest of the protocol:
as §1

The target of data set [8] is T8, KIT(L576P) (Homo sapiens, UniProt P10721, L576P).
T8 construct: purchased Ambit (DiscoverX) KINOMEscan; Cerep
Nature of the data set: KINOMEscan. Type of data set: binding. Particulars: read-out: Remaining enzyme activity. A digest of the protocol:
as §1

Data set [9] addresses T9, FLT3(D835H) (Homo sapiens, UniProt P36888, D835H).
T9 construct: purchased Ambit (DiscoverX) KINOMEscan; Cerep
Nature of the data set: KINOMEscan. Type of data set: binding. Particulars: read-out: Remaining enzyme activity. The method, boiled down: as §1

Data set [10] addresses T10, CDK9 (Homo sapiens, UniProt P50750).
T10 construct: purchased Ambit (DiscoverX) KINOMEscan; Cerep
Kind of data set: KINOMEscan. The conditions noted are these: read-out: Remaining enzyme activity. In kind it is binding. A digest of the protocol: as §1

For data set [11], the target named is T11, IKK-alpha (Homo sapiens, UniProt O15111).
T11 construct: purchased Ambit (DiscoverX) KINOMEscan; Cerep
T11 sequence (O15111 whole entry): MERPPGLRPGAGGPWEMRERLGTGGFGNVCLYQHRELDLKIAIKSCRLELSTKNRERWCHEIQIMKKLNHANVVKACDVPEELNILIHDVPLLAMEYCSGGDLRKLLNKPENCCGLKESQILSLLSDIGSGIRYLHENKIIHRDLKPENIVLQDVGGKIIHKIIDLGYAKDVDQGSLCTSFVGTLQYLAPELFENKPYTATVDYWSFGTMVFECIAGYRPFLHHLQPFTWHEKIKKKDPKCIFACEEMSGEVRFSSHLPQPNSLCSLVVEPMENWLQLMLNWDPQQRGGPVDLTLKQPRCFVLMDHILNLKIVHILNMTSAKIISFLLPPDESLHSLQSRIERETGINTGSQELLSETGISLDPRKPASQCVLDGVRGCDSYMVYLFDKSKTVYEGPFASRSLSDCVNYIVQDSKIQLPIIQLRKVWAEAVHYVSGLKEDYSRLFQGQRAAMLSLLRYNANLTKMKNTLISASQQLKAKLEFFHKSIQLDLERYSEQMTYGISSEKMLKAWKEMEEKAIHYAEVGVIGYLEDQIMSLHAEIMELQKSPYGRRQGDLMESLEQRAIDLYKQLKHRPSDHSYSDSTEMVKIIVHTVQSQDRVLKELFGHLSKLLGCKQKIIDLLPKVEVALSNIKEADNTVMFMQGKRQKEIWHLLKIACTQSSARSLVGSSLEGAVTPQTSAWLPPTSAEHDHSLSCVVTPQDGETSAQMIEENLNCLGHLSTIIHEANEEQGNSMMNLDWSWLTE
Kind of data set: KINOMEscan. Type of data set: binding. Particulars: read-out: Remaining enzyme activity. The method, boiled down: as §1

The target in data set [12] is T12, MYLK2 (Homo sapiens, UniProt Q9H1R3).
T12 construct: purchased Ambit (DiscoverX) KINOMEscan; Cerep
T12 sequence (Q9H1R3 whole entry): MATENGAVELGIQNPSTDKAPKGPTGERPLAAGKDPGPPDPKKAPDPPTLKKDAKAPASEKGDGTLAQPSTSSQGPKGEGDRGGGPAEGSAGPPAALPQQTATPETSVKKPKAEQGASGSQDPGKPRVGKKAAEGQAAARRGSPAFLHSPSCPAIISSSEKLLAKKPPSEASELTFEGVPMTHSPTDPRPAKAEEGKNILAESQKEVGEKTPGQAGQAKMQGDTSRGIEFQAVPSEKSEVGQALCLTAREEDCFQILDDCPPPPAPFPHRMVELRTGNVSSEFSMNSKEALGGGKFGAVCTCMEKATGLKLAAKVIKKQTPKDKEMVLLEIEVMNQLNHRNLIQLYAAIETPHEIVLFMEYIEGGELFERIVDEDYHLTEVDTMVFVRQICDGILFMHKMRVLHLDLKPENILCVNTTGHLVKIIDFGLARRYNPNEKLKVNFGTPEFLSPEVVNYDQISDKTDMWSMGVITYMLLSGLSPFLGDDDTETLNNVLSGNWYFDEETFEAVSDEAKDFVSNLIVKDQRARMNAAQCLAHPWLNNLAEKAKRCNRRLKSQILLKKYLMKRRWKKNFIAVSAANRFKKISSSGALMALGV
Nature of the data set: KINOMEscan. Type of data set: binding. Particulars: read-out: Remaining enzyme activity. A digest of the protocol: as §1

Data set [13] deals with T13, PRKD1 (Homo sapiens, UniProt Q15139).
T13 construct: purchased Ambit (DiscoverX) KINOMEscan; Cerep
Nature of the data set: KINOMEscan. Type of data set: binding. Particulars: read-out: Remaining enzyme activity. The method, boiled down: as §1

Data set [14] has as its target T14, SRC (Homo sapiens, UniProt P12931).
T14 construct: purchased Ambit (DiscoverX) KINOMEscan; Cerep
Nature of the data set: KINOMEscan. In kind it is binding. The conditions noted are these: read-out: Remaining enzyme activity. A digest of the protocol:
as §1

The target of data set [15] is T15, TAO1 (Homo sapiens, UniProt Q9UL54).
T15 construct: purchased Ambit (DiscoverX) KINOMEscan; Cerep
Kind of data set: KINOMEscan. In kind it is binding. Particulars: read-out: Remaining enzyme activity. A digest of the protocol: as §1

The target of data set [16] is T16, PDPK1 (Homo sapiens, UniProt O15530).
T16 construct: purchased Ambit (DiscoverX) KINOMEscan; Cerep
Kind of data set: KINOMEscan. In kind it is binding. The conditions noted are these: read-out: Remaining enzyme activity. The method, boiled down:
as §1

The target of data set [17] is T17, PIK3Cd (Homo sapiens, UniProt O00329).
T17 construct: purchased Ambit (DiscoverX) KINOMEscan; Cerep
T17 sequence (O00329 whole entry): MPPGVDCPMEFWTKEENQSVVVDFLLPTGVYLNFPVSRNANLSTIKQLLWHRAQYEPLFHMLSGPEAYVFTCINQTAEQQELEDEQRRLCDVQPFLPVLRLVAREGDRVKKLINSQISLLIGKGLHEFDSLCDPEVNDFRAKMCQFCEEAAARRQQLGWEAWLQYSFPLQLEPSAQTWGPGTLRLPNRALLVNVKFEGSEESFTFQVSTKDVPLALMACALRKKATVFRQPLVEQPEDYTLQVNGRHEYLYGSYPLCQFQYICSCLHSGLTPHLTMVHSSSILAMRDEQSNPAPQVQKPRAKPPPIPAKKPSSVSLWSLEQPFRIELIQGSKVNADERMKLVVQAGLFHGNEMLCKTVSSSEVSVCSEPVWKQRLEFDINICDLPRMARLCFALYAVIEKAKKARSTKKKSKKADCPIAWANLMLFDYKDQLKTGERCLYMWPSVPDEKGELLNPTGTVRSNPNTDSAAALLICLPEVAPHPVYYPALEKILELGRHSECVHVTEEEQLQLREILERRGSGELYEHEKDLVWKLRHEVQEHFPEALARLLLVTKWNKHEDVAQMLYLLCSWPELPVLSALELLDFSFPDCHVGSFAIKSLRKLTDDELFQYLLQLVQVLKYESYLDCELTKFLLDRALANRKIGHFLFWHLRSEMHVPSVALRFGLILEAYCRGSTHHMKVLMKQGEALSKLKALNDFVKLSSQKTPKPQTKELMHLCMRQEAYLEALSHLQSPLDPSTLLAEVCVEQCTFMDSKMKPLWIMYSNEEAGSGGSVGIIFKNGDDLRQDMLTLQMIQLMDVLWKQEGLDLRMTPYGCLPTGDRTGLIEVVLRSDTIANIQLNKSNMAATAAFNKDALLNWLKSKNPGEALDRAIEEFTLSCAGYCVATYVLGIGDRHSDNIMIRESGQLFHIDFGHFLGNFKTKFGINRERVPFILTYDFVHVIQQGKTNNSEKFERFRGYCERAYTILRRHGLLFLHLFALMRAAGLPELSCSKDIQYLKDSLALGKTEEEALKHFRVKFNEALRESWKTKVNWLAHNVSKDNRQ
Nature of the data set: KINOMEscan. Type of data set: binding. Particulars: read-out: Remaining enzyme activity. The method, boiled down:
as §1

In data set [18] the target is T18, PLK1 (Homo sapiens, UniProt P53350).
T18 construct: purchased Ambit (DiscoverX) KINOMEscan; Cerep
Kind of data set: KINOMEscan. Type of data set: binding. The conditions noted are these: read-out: Remaining enzyme activity. The method, boiled down:
as §1

Data set [19] concerns the target T19, LIMK1 (Homo sapiens, UniProt P53667).
T19 construct: purchased Ambit (DiscoverX) KINOMEscan; Cerep
Kind of data set: KINOMEscan. In kind it is binding. Particulars: read-out: Remaining enzyme activity. The method, boiled down: as §1

Data set [20] has as its target T20, AKT1 (Homo sapiens, UniProt P31749).
T20 construct: purchased Ambit (DiscoverX) KINOMEscan; Cerep
Nature of the data set: KINOMEscan. Type of data set: binding. The conditions noted are these: read-out: Remaining enzyme activity. The method, boiled down:
as §1

The nature of data set [21]: PK study. In kind it is in vivo, rat. The conditions noted are these: rat i.v. 2 mg kg^−1; for half-life: rat, 2 mg/kg. As for the experimental part:
On the treatment day, all animals were weighed and the dosing volume was calculated for each individual animal according to its actual body weight. All animal were dosed once. Blood samples were taken at different time points and plasma was collected after centrifugation (10,000g, 10 min, 4 °C). Plasma samples were analysed by LC–MS/MS. […] All relevant observations were recorded. The PK studies in cynomolgus monkeys and beagle dogs were performed by the Laboratory of Pharmacology and Toxicology (LPT), Hamburg, and PK and toxicity studies in mice and rats were performed by the 4SC Discovery GmbH, Munich. PK parameters were obtained by a non-compartment analysis, using Kinetica 4.1 (Thermo Scientific).

Data set [22] can be described thus: Plasma protein binding, rapid equilibrium dialysis. Type of data set: in vitro ADME. Particulars: 10 μM. As for the experimental part: The study was carried out by Novamass Ltd (Oulu, Finland). The plasma protein binding of SC83288 was determined in human rat, mouse and cynomolgus plasma, using a method based on rapid equilibrium dialysis and LC/MS/MS analysis. Briefly, plasma from the different species was incubated with a final concentration of SC83288 of 10 μM for 4 h at 37 °C in a rapid equilibrium dialysis device. Proteins were then precipitated by acetonitrile addition containing a phenacetin internal standard. After centrifugation (10,000g) the supernatants were analysed by LC/MS/MS to obtain the protein unbound fraction of the analyte substance.

T19 sequence (P53667 whole entry): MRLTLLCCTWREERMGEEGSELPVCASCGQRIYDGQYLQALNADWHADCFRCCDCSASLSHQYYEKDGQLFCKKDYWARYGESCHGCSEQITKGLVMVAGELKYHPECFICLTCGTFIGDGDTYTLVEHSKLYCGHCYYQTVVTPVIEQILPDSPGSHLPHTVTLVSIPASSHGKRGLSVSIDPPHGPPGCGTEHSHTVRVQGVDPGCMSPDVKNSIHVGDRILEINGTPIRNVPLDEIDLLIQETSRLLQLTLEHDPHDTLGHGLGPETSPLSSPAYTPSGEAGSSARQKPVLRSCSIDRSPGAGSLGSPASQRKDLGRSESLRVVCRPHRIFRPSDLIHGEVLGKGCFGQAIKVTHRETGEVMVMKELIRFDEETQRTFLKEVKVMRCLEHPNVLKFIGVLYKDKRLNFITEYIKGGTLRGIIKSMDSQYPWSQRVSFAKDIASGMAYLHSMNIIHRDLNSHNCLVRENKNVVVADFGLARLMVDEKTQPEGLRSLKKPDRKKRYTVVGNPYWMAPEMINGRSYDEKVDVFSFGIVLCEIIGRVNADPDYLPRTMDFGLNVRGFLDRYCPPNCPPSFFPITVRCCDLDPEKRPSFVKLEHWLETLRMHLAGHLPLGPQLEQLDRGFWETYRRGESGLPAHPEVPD
T4 sequence (Q99640 whole entry): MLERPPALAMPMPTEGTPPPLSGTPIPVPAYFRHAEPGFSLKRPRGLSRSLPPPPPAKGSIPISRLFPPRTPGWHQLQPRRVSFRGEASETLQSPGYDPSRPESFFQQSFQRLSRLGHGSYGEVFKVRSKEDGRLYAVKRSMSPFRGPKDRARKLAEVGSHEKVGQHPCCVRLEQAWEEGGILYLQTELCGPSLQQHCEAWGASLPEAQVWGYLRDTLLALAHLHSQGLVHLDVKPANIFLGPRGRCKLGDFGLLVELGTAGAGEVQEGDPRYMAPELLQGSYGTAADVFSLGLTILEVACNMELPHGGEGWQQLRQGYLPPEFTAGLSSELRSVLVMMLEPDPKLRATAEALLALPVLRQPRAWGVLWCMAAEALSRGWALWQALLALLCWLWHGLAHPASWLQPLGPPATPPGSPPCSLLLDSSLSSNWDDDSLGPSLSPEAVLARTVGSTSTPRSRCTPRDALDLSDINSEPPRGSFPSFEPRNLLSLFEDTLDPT
T2 sequence (Q05655 whole entry): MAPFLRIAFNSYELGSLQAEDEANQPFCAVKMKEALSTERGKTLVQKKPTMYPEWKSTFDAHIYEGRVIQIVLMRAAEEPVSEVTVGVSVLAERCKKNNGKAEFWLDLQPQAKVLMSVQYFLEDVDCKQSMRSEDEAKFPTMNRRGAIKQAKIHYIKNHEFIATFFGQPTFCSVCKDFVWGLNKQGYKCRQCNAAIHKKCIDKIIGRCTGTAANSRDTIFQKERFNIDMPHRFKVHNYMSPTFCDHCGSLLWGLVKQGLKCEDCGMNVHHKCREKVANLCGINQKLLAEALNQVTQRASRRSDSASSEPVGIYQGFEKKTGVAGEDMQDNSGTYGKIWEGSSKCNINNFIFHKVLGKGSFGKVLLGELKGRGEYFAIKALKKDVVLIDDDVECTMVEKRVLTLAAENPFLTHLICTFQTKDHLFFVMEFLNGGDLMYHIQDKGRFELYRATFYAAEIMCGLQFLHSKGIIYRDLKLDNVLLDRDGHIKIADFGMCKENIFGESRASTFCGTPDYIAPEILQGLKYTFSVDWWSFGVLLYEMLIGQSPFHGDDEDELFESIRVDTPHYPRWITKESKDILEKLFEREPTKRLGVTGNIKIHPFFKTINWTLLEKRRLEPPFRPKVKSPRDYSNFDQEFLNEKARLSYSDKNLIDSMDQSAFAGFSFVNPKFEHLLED

As to `CCCCN1CCN(C(=N)c2cccc(NC(=O)Nc3ccc(S(=O)(=O)NCc4ccc(S(N)(=O)=O)cc4)cc3)c2)CC1` [SC81458, 4-(3-(3-((4-butylpiperazin-1-yl)(imino)methyl)phenyl)ureido)-N-(4-sulfamoylbenzyl) benzenesulfonamide], the remaining binding at 10 µM in [1] was determined as 71%; in data set [2] it was 100%; in [3], 88%; in data set [4], 90%; in data set [5] it was 75%; in [6] it was 100%. Also, the remaining binding at 10 µM in data set [7] came to 100%; in [8], 66%; in [9] it was 100%; in data set [10] it was 100%; in data set [11], 100%; in data set [12] it was 100%. Further, the remaining binding at 10 µM in data set [13] was 65%; in data set [14] it was 81%; in data set [15], 100%; in data set [16], 74%; in data set [17], 73%; in data set [18], 96%. For the same compound, the remaining binding at 10 µM in data set [19] came out at 76%; in [20] it was 87%.

For the compound `COC(=O)N1CCN(C(=N)c2cccc(NC(=O)Nc3ccc(S(=O)(=O)NCc4ccc(S(N)(=O)=O)cc4)cc3)c2)CC1` [SC83288, methyl 4-(imino(3-(3-(4-(N-(4-sulfamoylbenzyl)sulfamoyl)phenyl)ureido)phenyl)methyl) piperazine-1-carboxylate], in data set [21] (plasma, iv), the area under the curve AUC(0-inf) was found to be 1420 ng·h/mL. The C0 in data set [21] (plasma, iv) is 4380 ng/mL. The highest level in data set [21] (plasma, iv) (Cmax) was 3280 ng/mL. For the same compound, the Tmax in data set [21] (plasma, iv) is 5 min. This compound gave a clearance in data set [21] (plasma, iv) of 23.5 mL/min/kg. Moreover, the MRT last in data set [21] (plasma, iv, read-out: MRT0-t) was found to be 75 min. In addition, the VC in [21] stood at 0.457 L/kg. Further, the half-life in [21] (plasma, iv, read-out: t1/2 effective) stood at 52 min; in data set [21] (plasma, iv, read-out: t1/2 initial) it was 9 min; in data set [21] (plasma, iv, read-out: t1/2 terminal), 625 min. Besides, the Bound fraction in data set [22] (cynomolgus plasma) is 82 ± 2.8% and 82%; in data set [22] (human plasma), 78 ± 1.3% and 78%; in data set [22] (mouse plasma) it was 89 ± 2.2% and 89%; in data set [22] (rat plasma) it was 80 ± 0.6%.

The values above are taken from publication PMC5290327, “SC83288 is a clinical development candidate for the treatment of severe malaria” (Nature Communications, 2017).
